Assay results published in patent US9725445B2, “Cycloalkyl nitrile pyrazolo pyridones as Janus kinase inhibitors” (Merck Sharp & Dohme Corp., priority 2013, dated 2017).

Tests used:
JAK2 = JAK2 (Homo sapiens (Human), UniProt O60674); experiment: Jak biochemical HTRF assay, JAK2; conditions: HTRF biochemical assay, recombinant GST-tagged catalytic domain; read-out: JAK2 IC50
JAK1 = JAK1 (Homo sapiens (Human), UniProt P23458); experiment: Jak biochemical HTRF assay, JAK1; conditions: HTRF biochemical assay, recombinant GST-tagged catalytic domain; read-out: JAK1 IC50
JAK1, sequence (P23458 875-1153): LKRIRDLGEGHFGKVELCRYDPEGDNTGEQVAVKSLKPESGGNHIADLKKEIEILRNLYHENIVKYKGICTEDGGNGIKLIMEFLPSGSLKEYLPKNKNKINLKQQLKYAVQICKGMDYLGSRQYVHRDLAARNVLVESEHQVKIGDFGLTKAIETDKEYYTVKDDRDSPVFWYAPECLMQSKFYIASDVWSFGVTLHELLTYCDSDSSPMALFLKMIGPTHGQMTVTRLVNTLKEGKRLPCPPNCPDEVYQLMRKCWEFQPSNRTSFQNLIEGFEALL

JAK2, sequence (O60674 849-1124): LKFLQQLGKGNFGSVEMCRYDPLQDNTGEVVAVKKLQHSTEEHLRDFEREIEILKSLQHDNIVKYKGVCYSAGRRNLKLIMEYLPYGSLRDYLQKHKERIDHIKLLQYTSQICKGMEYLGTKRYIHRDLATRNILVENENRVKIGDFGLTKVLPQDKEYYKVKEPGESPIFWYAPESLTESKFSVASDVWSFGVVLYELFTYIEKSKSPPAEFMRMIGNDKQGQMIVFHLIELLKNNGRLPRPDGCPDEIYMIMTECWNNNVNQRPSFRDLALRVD

| IC50 (JAK2) [nM] | IC50 (JAK1) [nM] | SMILES |
| --- | --- | --- |
| 0.72 | 0.22 | CC1(c2ccc(Nc3nn([C@H]4CCCC[C@@H]4C#N)c4cc[nH]c(=O)c34)cc2)COC1 [Example 15-13, (1S,2S)-2-(3-{[4-(3-methyloxetan-3-yl)phenyl]amino}-4-oxo-4,5-dihydro-1H-pyrazolo[4,3-c]pyridin-1-yl)cyclohexanecarbonitrile] |
| 40 | 1.7 | N#C[C@H]1C[C@H](N2CCC2)CC[C@@H]1n1nc(Nc2ccc(Cl)c(F)c2)c2c(=O)[nH]ccc21 [Example 5-3, (1S,2S,5R)-5-(azetidin-1-yl)-2-(3-((4-chloro-3-fluorophenyl)amino)-4-oxo-4,5-dihydro-1H-pyrazolo[4,3-c]pyridin-1-yl)cyclohexanecarbonitrile] |
| 0.71 | 0.12 | CC(C)(C)OC(=O)CC(C)(C)N1Cc2cc(Nc3nn([C@H]4CCCC[C@@H]4C#N)c4cc[nH]c(=O)c34)ccc2S1(=O)=O [Example 3-155, tert-butyl 3-[5-({1-[(1S,2S)-2-cyanocyclohexyl]-4-oxo-4,5-dihydro-1H-pyrazolo[4,3-c]pyridin-3-yl}amino)-1,1-dioxido-1,2-benzisothiazol-2(3H)-yl]-3-methylbutanoate] |
| 0.5 | 0.17 | CC(C)(c1ccc(Nc2nn([C@H]3CCCC[C@@H]3C#N)c3cc[nH]c(=O)c23)cc1)n1ccnn1 [Example 3-147, (1S,2S)-2-[3-({4-[1-methyl-1-(1H-1,2,3-triazol-1-yl)ethyl]phenyl}amino)-4-oxo-4,5-dihydro-1H-pyrazolo[4,3-c]pyridin-1-yl]cyclohexanecarbonitrile] |
| > 1500 | 84 | C[C@H](NC1CCC(n2nc(Nc3ccc(Cl)cc3)c3c(=O)[nH]ccc32)C(C#N)C1)C1CC1 (stereo in doubt) [Example 4-2, (1S,2S,5R)-2-(3-((4-Chlorophenyl)amino)-4-oxo-4,5-dihydro-1H-pyrazolo[4,3-c]pyridin-1-yl)-5-(((S)-1-cyclopropylethyl)amino)cyclohexanecarbonitrile] |
| 0.65 | 0.12 | N#C[C@H]1CCCC[C@@H]1n1nc(Nc2ccc3c(c2)CN(CC2CCCC2)S3(=O)=O)c2c(=O)[nH]ccc21 [Example 3-65, (1S,2S)-2-(3-{[2-(cyclopentylmethyl)-1,1-dioxido-2,3-dihydro-1,2-benzisothiazol-5-yl]amino}-4-oxo-4,5-dihydro-1H-pyrazolo[4,3-c]pyridin-1-yl)cyclohexanecarbonitrile] |
| 0.32 | 0.36 | N#C[C@H]1CCCC[C@@H]1n1nc(Nc2ccc(C3(N)CCC3)cc2)c2c(=O)[nH]ccc21 [Example 12-2, (1S,2S)-2-(3-((4-(1-aminocyclobutyl)phenyl)amino)-4-oxo-4,5-dihydro-1H-pyrazolo[4,3-c]pyridin-1-yl)cyclohexanecarbonitrile] |
| 0.55 | 0.28 | CC1(N2Cc3cc(Nc4nn([C@H]5CCCC[C@@H]5C#N)c5cc[nH]c(=O)c45)ccc3S2(=O)=O)CCC(F)(F)CC1 [Example 15-73, (1S,2S)-2-(3-{[2-(4,4-difluoro-1-methylcyclohexyl)-1,1-dioxido-2,3-dihydro-1,2-benzisothiazol-5-yl]amino}-4-oxo-4,5-dihydro-1H-pyrazolo[4,3-c]pyridin-1-yl)cyclohexanecarbonitrile] |
| 1.7 | 1.4 | N#C[C@H]1CCCC[C@@H]1n1nc(Nc2cccc(Cn3cccn3)c2)c2c(=O)[nH]ccc21 [Example 3-43, (1S,2S)-2-(4-oxo-3-{[3-(1H-pyrazol-1-ylmethyl)phenyl]amino}-4,5-dihydro-1H-pyrazolo[4,3-c]pyridin-1-yl)cyclohexanecarbonitrile] |
| 0.41 | 0.16 | CC(C)(O)c1cn(Cc2ccc(Nc3nn([C@H]4CCCC[C@@H]4C#N)c4cc[nH]c(=O)c34)cc2)nn1 [Example 3-52, (1S,2S)-2-{3-[(4-{[4-(1-hydroxy-1-methylethyl)-1H-1,2,3-triazol-1-yl]methyl}phenyl)amino]-4-oxo-4,5-dihydro-1H-pyrazolo[4,3-c]pyridin-1-yl}cyclohexanecarbonitrile] |
